This is an account of results in publication PMC10459521, “Unfolding the Antibacterial Activity and Acetylcholinesterase Inhibition Potential of Benzofuran-Triazole Hybrids: Synthesis, Antibacterial, Acetylcholinesterase Inhibition, and Molecular Docking Studies” (Molecules, 2023).

The subject of experiment [1] is AChE. The settings on record: Figure 2; cited from earlier work.
In experiment [2] the target is acetylcholinesterase (AChE) (Homo sapiens, UniProt P22303). Nature of the experiment: AChE inhibition assay (modified Ellman's method). Format: biochemical. The settings on record: for inhibition at 500 µM: 0.5 mM; for IC50: Ellman's method. How it is done: The inhibitory effects of all synthesized derivatives on AChE activities were measured using a modified Ellman’s method. This experimental study used DTNB (5,5′-dithio-bis(2-nitro-benzoic)acid) and AChI as the […]. The tested compounds (10 µL; […]) were mixed with AChE (50 µL; 38 U) solution and incubated for 10 min at 25 °C. DTNB (50 µL; 0.3 mM) was then added. The transfer of AChI (200 µL; 50 mM Tris/HCl buffer pH = 8) initiated the reaction. A spectrophotometer recorded the hydrolysis of AChI by the formation of yellow 5-thio-2-nitrobenzoate anions as a result of the reaction of DTNB with thiocholine at a wavelength of 412 nm. […] The given formula was used to calculate the (%) inhibition: Inhibition %=Control−Test/Control×100
Chain of acetylcholinesterase (AChE) (P22303 32-614): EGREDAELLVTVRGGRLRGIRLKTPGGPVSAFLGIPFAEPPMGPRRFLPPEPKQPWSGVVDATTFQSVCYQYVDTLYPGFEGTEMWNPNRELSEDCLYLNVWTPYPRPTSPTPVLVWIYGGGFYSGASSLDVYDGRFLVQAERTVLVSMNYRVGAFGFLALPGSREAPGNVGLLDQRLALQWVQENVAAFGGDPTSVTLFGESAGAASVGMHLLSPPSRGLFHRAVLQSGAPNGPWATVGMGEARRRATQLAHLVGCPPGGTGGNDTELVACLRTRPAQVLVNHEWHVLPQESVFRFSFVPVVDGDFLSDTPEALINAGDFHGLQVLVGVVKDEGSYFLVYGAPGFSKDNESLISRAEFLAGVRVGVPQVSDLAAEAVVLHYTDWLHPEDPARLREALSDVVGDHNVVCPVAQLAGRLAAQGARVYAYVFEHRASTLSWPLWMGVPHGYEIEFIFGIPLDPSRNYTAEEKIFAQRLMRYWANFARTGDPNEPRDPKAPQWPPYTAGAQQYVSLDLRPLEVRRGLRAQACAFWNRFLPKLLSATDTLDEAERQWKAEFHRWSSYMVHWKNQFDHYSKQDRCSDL
IC50 values were calculated using data from GraphPad Prism 5 software.
On the technique in general: In Ellman's method for cholinesterases, released thiocholine reacts with DTNB.

Experiment [3] concerns B. subtilis QB-928. Nature of the experiment: Antibacterial assay, disc diffusion method (inhibition zone and MIC). The experiment is classed as cell-based. The note with it: for zone of inhibition at 25 µg/disc: QB928, disc diffusion; for zone of inhibition at 25 µg/disc / Inhibition Zone: 25 μg per disc, includes 5.6 mm disc diameter; for Inhibition Zone: disc diffusion. How it is done: (§1) The evaluation of in vitro antibacterial activity of synthesized compounds was performed against two bacterial strains, namely Gram +ve B. subtilis QB-928 and Gram −ve E. coli AB-274 using the disc diffusion method.
The antibacterial potential of all targeted compounds was evaluated using the disc diffusion method. A suspension of 100 μL containing 10^8 cfu/mL of bacteria was applied on nutrient agar media with the support of a sterilized loop. The compound solution was infused into sterilized filter paper discs (5.6 mm in diameter) at a particular concentration (25 μg/100 μL) in chloroform. The standard penicillin (25 μg per disc) was utilized as a positive control for antibacterial assay. These discs were carefully placed on agar which had originally been […] with selected bacterial cells. The agar culture plates were stored at 4 °C for 1 h and then the bacterial culture plate was incubated at 27 °C for 24 h. The inhibition zone was determined in millimeters (including the 5.6 mm disc diameter) with a reference control.

In experiment [4] the test system is E. coli AB-274. Described as above. The experiment is classed as cell-based. The settings on record: for Inhibition Zone / zone of inhibition at 25 µg/disc: disc diffusion, 25 μg per disc, includes 5.6 mm disc diameter. On the procedure:
as §1
The antibacterial potential of all targeted compounds was evaluated using the disc diffusion method. A suspension of 100 μL containing 10^8 cfu/mL of bacteria was applied on nutrient agar media with the support of a sterilized loop. […] The standard penicillin (25 μg per disc) was utilized as a positive control for antibacterial assay. These discs were carefully placed on agar which had originally been […] with selected bacterial cells. The agar culture plates were stored at 4 °C for 1 h and then the bacterial culture plate was incubated at 27 °C for 24 h. […]

Where [5] appears, read: Bacillus subtilis, QB928, read-out: MIC.
[6] abbreviates: Escherichia coli, AB274, E. coli.
[7] abbreviates: Escherichia coli, AB274, E. coli, read-out: MIC.

≈ marks a conversion by molar mass, not a printed value. Where two headings read alike, the source gives them in different places.

`COc1cccc2cc(C(=O)NCCCCNC(=O)c3cc4ccccc4o3)c(=O)oc12` [Compound 1c]: in experiment [1], the IC50 is 180 ± 50 nM.

`COc1ccc(OC)c(NC(=O)CSc2nnc(-c3cc4cc(Br)ccc4o3)n2-c2ccc(Cl)c(Cl)c2)c1` [Compound 10d, 2-((5-(5-Bromobenzofuran-2-yl)-4-(3,4-dichlorophenyl)-4H-1,2,4-triazol-3-yl)thio)-N-(2,5-dimethoxyphenyl)acetamide] yielded an inhibition at 500 µM in experiment [2] of 81.45 ± 0.5%. Also, the IC50 in experiment [2] came out at 550 ± 1000 nM. Moreover, the zone of inhibition at 25 µg/disc in experiment [3] (Bacillus subtilis) was 11 mm; in experiment [4] (setting [6]), 12 mm. Further, the minimal inhibitory concentration (MIC) in experiment [3] (setting [5]) is 9.25 ± 1.25 µg/mL (≈ 14.6 µM); in experiment [4] (setting [7]) it was 16 ± 1 µg/mL (≈ 25.2 µM). The “Inhibition Zone” value came out at 11 ± 0.50 mm in experiment [3] and 12 ± 0.65 mm in experiment [4] (E. coli).

In the case of penicillin [reference compound], the MIC came out at 1 ± 1.50 µg/mL in experiment [3], 1 µg/mL in experiment [3] (listed as penicillin) and 2.4 ± 1.00 µg/mL in experiment [4] (E. coli). In addition, the “Inhibition Zone” value in experiment [3] is on record as 18 ± 0.50 mm; in experiment [3] (listed as penicillin), 18 mm; in experiment [4] (E. coli), 24 ± 0.50 mm.

In experiment [2], `O=C(CSc1nnc(-c2cc3cc(Br)ccc3o2)n1-c1ccccc1)Nc1ccccc1` [Compound 10a, 2-((5-(5-bromobenzofuran-2-yl)-4-phenyl-4H-1,2,4-triazol-3-yl)thio)-N-phenylacetamide] registered an inhibition at 500 µM of 65.8 ± 1.5% and a concentration for half-maximal inhibition (IC50) of 880 ± 500 nM. Moreover, in experiment [3], the “Inhibition Zone” value was “no detectable results”. In experiment [4] (E. coli), the minimum inhibitory concentration (MIC) amounted to 1.80 µg/mL (≈ 3.56 µM) and the “Inhibition Zone” value was 38 ± 1.50 mm. In experiment [4] (Escherichia coli, AB274), the minimal inhibitory concentration (MIC) was 1.8 ± 0.25 µg/mL (≈ 3.56 µM). The compound further returned a zone of inhibition at 25 µg/disc in experiment [4] (setting [6]) of 38 mm.

Consider `Cc1cc(C)cc(C[n+]2ccc(-c3cc4ccccc4o3)cc2)c1` [Compound 1a], for which, in experiment [1], the half-maximal inhibitory concentration (IC50) was 4.1 ± 1.5 nM.

For `O=C(CSc1nnc(-c2cc3cc(Br)ccc3o2)n1-c1ccccc1)Nc1ccc([N+](=O)[O-])cc1` [Compound 10c, 2-((5-(5-Bromobenzofuran-2-yl)-4-phenyl-4H-1,2,4-triazol-3-yl)thio)-N-(4-nitrophenyl)acetamide], in experiment [2], at 500 µM the inhibition was 55.9 ± 1.25% and half-maximal inhibition (IC50) was put at 2280 ± 1750 nM. For the same compound, in experiment [3], the “Inhibition Zone” value is recorded as “no detectable results”. Besides, the “Inhibition Zone” value in experiment [4] (E. coli) is recorded as 28 ± 0.00 mm. Further, in experiment [4] (setting [6]), the zone of inhibition at 25 µg/disc was determined as 28 mm. Also, the MIC in experiment [4] (setting [7]) was found to be 2.5 ± 0.7 µg/mL (≈ 4.54 µM).

For `O=C(NCCCNc1c2c(nc3cc(Cl)ccc13)CCCC2)c1cc2ccccc2o1` [Compound 1b], the half-maximal inhibitory concentration (IC50) in experiment [1] was 120 nM.

`Cc1ccc(NC(=O)CSc2nnc(-c3cc4cc(Br)ccc4o3)n2-c2ccccc2)cc1C` [Compound 10b, 2-((5-(5-Bromobenzofuran-2-yl)-4-phenyl-4H-1,2,4-triazol-3-yl)thio)-N-(3,4-dimethylphenyl)acetamide] returned an inhibition at 500 µM in experiment [2] of 61.7 ± 1.5%. This compound also showed an IC50 in experiment [2] of 1500 ± 1000 nM. The MIC is 1.25 µg/mL (≈ 2.34 µM) in experiment [3], 1.25 ± 0.6 µg/mL (≈ 2.34 µM) in experiment [3] (setting [5]) and 3.8 ± 2.1 µg/mL (≈ 7.12 µM) in experiment [4] (setting [7]). The values for the zone of inhibition at 25 µg/disc in experiment [3] (Bacillus subtilis) and in experiment [4] (setting [6]) were 42 mm and 11.5 mm, respectively. Also, the “Inhibition Zone” value is reported as 42 ± 1.00 mm in experiment [3] and 11.5 ± 1.40 mm in experiment [4] (E. coli).

In the case of `COc1cccc2cc(C(=O)NCCn3ccc(=O)c(OCc4ccccc4)c3C)oc12` [Compound 1d], the IC50 in experiment [1] was 76000 nM.

In experiment [2], `O=C(CSc1nnc(-c2cc3cc(Br)ccc3o2)n1-c1ccc(Cl)c(Cl)c1)Nc1ccc(Cl)c(Cl)c1` [Compound 10e, 2-((5-(5-Bromobenzofuran-2-yl)-4-(3,4-dichlorophenyl)-4H-1,2,4-triazol-3-yl)thio)-N-(3,4-dichlorophenyl)acetamide] yielded an inhibition at 500 µM of 51.2 ± 1.24%. The same compound gave a concentration for half-maximal inhibition (IC50) in experiment [2] of 1980 ± 250 nM. For the same compound, the zone of inhibition at 25 µg/disc was found to be 8 mm in experiment [3] (Bacillus subtilis) and 24 mm in experiment [4] (setting [6]). The minimum inhibitory concentration (MIC) in experiment [3] (setting [5]) turned out to be 14 ± 1.8 µg/mL (≈ 21.8 µM); in experiment [4] (setting [7]), 2.5 ± 1.4 µg/mL (≈ 3.89 µM). The “Inhibition Zone” value in experiment [3] was determined as 8 ± 0.75 mm; in experiment [4] (E. coli) it was 24 ± 0.50 mm.

Usually IC50 stands for the point on the concentration scale where inhibition reaches its midpoint. For orientation: inhibition means the share of the control response that was lost under treatment. Low readings indicate a weak effect, high ones a strong effect. For orientation: zone of inhibition means the extent of the growth-free halo in a diffusion test. High values mean wide suppression of growth, low ones little suppression of growth. Broadly, the MIC is the smallest concentration in the dilution series that meets the test's criterion for growth inhibition.
